Calls of active or inactive are those of the source. The rule behind the calls is not given here.
Legend:
HCT-116 [1] = test: Induction of apoptosis in human HCT-116 cells assessed as increase in LC3-II expression upto 4 uM incubated for 24 hrs by Western blot analysis; assay type: functional, cell-based
HCT-116 [2] = test: Induction of apoptosis in human HCT-116 cells assessed as viable cells at 2 uM incubated for 24 hrs by annexin V FITC/propidium iodide staining based flow cytometry (reference value: 83 %); assay type: functional; details: read-out: Activity
HCT-116 [3] = test: Induction of apoptosis in human HCT-116 cells assessed as late apoptotic cells at 2 uM incubated for 24 hrs in presence of Z-VAD-FMK by annexin V FITC/propidium iodide staining based flow cytometry (reference value: 4.6 %); assay type: functional
SK-OV-3 = test: Antiproliferative activity against human SK-OV-3 cells assessed as inhibition of cell growth measured after 48 hrs by MTT assay; assay type: functional, cell-based; details: SK-OV-3, 48 h
HCT-116 [4] = test: Induction of apoptosis in ATG7 knockout human HCT-116 cells assessed as increase in caspase 3 expression upto 4 uM incubated for 24 hrs by Western blot analysis; assay type: functional, cell-based
HCT-116 [5] = test: Downregulation of Myc-v1 in human HCT-116 cells at 2 uM incubated for 24 hrs by RNA sequencing analysis; assay type: functional, cell-based
HCT-116 [6] = test: Induction of apoptosis in human HCT-116 cells assessed as necrotic cells at 1 uM incubated for 24 hrs in presence of Z-VAD-FMK by annexin V FITC/propidium iodide staining based flow cytometry (reference value: 2.9 %); assay type: functional
HCT-116 [7] = test: Antiproliferative activity against human HCT-116 cells expressing ATG5-FLAG assessed as inhibition of cell growth measured after 24 hrs by CCK-8 assay; assay type: functional, cell-based; details: HCT-116, 24 h
HCT-116 [8] = test: Upregulation of inflammatory response gene in human HCT-116 cells at 2 uM incubated for 24 hrs by RNA sequencing analysis; assay type: functional, cell-based
HCT-116 [9] = test: Induction of apoptosis in ATG5 knockout human HCT-116 cells assessed as increase in caspase 3 expression upto 4 uM incubated for 24 hrs by Western blot analysis; assay type: functional, cell-based
HCT-116 [10] = test: Upregulation of bile acid metabolism pathway in human HCT-116 cells at 2 uM incubated for 24 hrs by RNA sequencing analysis; assay type: functional, cell-based
HCT-116 [11] = test: Downregulation of DNA repair gene in human HCT-116 cells at 2 uM incubated for 24 hrs by RNA sequencing analysis; assay type: functional, cell-based
HCT-116 [12] = test: Inhibition of colony formation in human HCT-116 cells at 1 to 4 uM measured after 14 days by crystal violet staining based analysis; assay type: functional, cell-based; details: dose 1-4 µM, time 14.0 day
A-375 = test: Antiproliferative activity against human A-375 cells assessed as inhibition of cell growth measured after 48 hrs by MTT assay; assay type: functional, cell-based; details: A-375, 48 h
HCT-116 [13] = test: Induction of autophagy in human HCT-116 cells expressing ATG5-FLAG assessed as increase in LC3-II expression upto 4 uM measured after 24 hrs by Western blot analysis; assay type: functional, cell-based
HCT-116 [14] = test: Induction of apoptosis in human HCT-116 cells assessed as late apoptotic cells at 1 uM incubated for 24 hrs by annexin V FITC/propidium iodide staining based flow cytometry (reference value: 4.6%); assay type: functional
HCT-116 [15] = test: Induction of apoptosis in human HCT-116 cells assessed as late apoptotic cells at 2 uM incubated for 24 hrs by annexin V FITC/propidium iodide staining based flow cytometry (reference value: 4.6%); assay type: functional
HCT-116 [16] = test: Downregulation of mTORC1 signaling pathway in human HCT-116 cells at 2 uM incubated for 24 hrs by RNA sequencing analysis; assay type: functional, cell-based
HCT-116 [17] = test: Induction of apoptosis in human HCT-116 cells assessed as viable cells at 2 uM incubated for 24 hrs in presence of Z-VAD-FMK by annexin V FITC/propidium iodide staining based flow cytometry (reference value: 86.2 %); assay type: functional; details: read-out: Activity
HCT-116 [18] = test: Antiproliferative activity against human HCT-116 cells assessed as inhibition of cell growth measured after 24 hrs by CCK-8 assay; assay type: functional, cell-based; details: HCT-116, 24 h
HCT-116 [19] = test: Induction of apoptosis in p53 knockout human HCT-116 cells assessed as increase in cleaved caspase 3 expression upto 5 uM incubated for 24 hrs by Western blot analysis; assay type: functional, cell-based
HCT-116 [20] = test: Induction of apoptosis in human HCT-116 cells assessed as necrotic cells at 1 uM incubated for 24 hrs by annexin V FITC/propidium iodide staining based flow cytometry (reference value: 7.7%); assay type: functional
HCT-116 [21] = test: Induction of autophagy in human HCT-116 cells assessed as increase in LC3-II expression at 3 uM measured after 48 to 60 hrs by Western blot analysis; assay type: functional, cell-based; details: time 48-60 hrs
HCT-116 [22] = test: Induction of apoptosis in human HCT-116 cells assessed as early apoptotic cells at 2 uM incubated for 24 hrs in presence of Z-VAD-FMK by annexin V FITC/propidium iodide staining based flow cytometry (reference value: 6.3 %); assay type: functional
ECa-109 cell line = test: Antiproliferative activity against human Eca-109 cells assessed as inhibition of cell growth measured after 48 hrs by MTT assay; assay type: functional, cell-based; details: ECa-109, 48 h
HCT-116 [23] = test: Antiproliferative activity against human HCT-116 cells expressing ATG7-FLAG assessed as inhibition of cell growth measured after 24 hrs by CCK-8 assay; assay type: functional, cell-based; details: HCT-116, 24 h
HCT-116 [24] = test: Induction of apoptosis in p53 knockout human HCT-116 cells assessed as increase in caspase 3 expression upto 5 uM incubated for 24 hrs by Western blot analysis; assay type: functional, cell-based
HCT-116 [25] = test: Induction of autophagy in ATG7 knockout human HCT-116 cells assessed as increase in LC3-II expression upto 4 uM measured after 24 hrs by Western blot analysis; assay type: functional, cell-based
HCT-116 [26] = test: Induction of autophagy in ATG5 knockout human HCT-116 cells assessed as increase in LC3-II expression upto 4 uM measured after 24 hrs by Western blot analysis; assay type: functional, cell-based
HT-29 = test: Antiproliferative activity against human HT-29 cells assessed as inhibition of cell growth measured after 48 hrs by MTT assay; assay type: functional, cell-based; details: HT-29, 48 h
CT26 = test: Antitumor activity against […] CT26 cells xenografted in C57BL/6 mouse assessed as reduction in tumor weight at 45 mg/kg, ip administered once every two days measured after 16 days; assay type: functional; parameters: scale not given: the % may be the effect or the level left; details: time 16 day
HCT-116 [27] = test: Induction of morphological changes in human HCT-116 cells assessed as reduction in intercellular contact at 2 to 6 uM measured after 24 hrs by microscopic analysis; assay type: functional, cell-based; details: dose 2-6 µM

In the case of `CN1CCN(Cc2cc3c4ccccc4n(CCCc4ccccc4)c3c(CN3CCN(C)CC3)n2)CC1`, the Activity (HCT-116 [1]) is reported as “Active”, the viability at 2 µM (HCT-116 [2]) is reported as 82.1% and the Activity (HCT-116 [3]) is reported as 4.6%. For the same compound, the IC50 (SK-OV-3) was 10.6 µM, the Activity (HCT-116 [4]) was “inactive” and the Activity (HCT-116 [5]) was “Active”. For the same compound, the Activity (HCT-116 [6]) was 3.6%, the IC50 (HCT-116 [7]) was 4.57 µM and the Activity (HCT-116 [8]) was “Active”. For the same compound, the Activity (HCT-116 [9]) was “inactive”, the Activity (HCT-116 [10]) was “Active” and the Activity (HCT-116 [11]) was “Active”. The inhibition (HCT-116 [12]) was “Active”, the IC50 (A-375) was 11.5 µM and the Activity (HCT-116 [13]) was “Active”. The Activity (HCT-116 [14]) was 5.6%, the Activity (HCT-116 [15]) was 6.8% and the Activity (HCT-116 [16]) was “Active”. The viability at 2 µM (HCT-116 [17]) was 83.7%, the IC50 (HCT-116 [18]) was 4.97 µM and the Activity (HCT-116 [19]) was “inactive”. For the same compound, the Activity (HCT-116 [20]) was 6%, the Activity (HCT-116 [21]) was “inactive” and the Activity (HCT-116 [22]) was 5.4%. For the same compound, the IC50 (ECa-109 cell line) was 8.62 µM, the IC50 (HCT-116 [23]) was 5.09 µM and the Activity (HCT-116 [24]) was “inactive”. The Activity (HCT-116 [25]) was “inactive”, the Activity (HCT-116 [26]) was “inactive” and the IC50 (HT-29) was 2020 nM. The Activity (CT26) was 69.69% and the Activity (HCT-116 [27]) was “Active”.

Source: ChEMBL document CHEMBL5352452, “Design, synthesis and pharmacological evaluation of β-carboline derivatives as potential antitumor agent via targeting autophagy” (Eur J Med Chem, 2023)
